In article PMC5769417, “Single- and Multiple-Dose Trials to Determine the Pharmacokinetics, Safety, Tolerability, and Sex Effect of Oral Ginsenoside Compound K in Healthy Chinese Volunteers” (Frontiers in Pharmacology, 2018):
Values joined by “and” are separate entries in the source; they are usually repeats but may differ in a detail not shown here. Identical values can stand only once.

Assay: Single-dose trial, cumulative urine excretion
Assay type: in vivo, human
Conditions: fasting, urine 0–48 h
Description: Single-dose pharmacokinetics: In the 25 and 50 mg dose groups, serial blood samples were collected at pre-dose (t = 0) and at 0.25, 0.5, 1, 1.5, 2, 2.5, 3, 3.5, 4, 5, 6, 8, 12, 24, 36, and 48 h post-dose. From the 100 to 800 mg dose groups, blood samples were additionally collected at 72 and 96 h post-dose. Plasma was separated from whole blood by refrigerated centrifugation (3,000 rpm, 10 min), within 1 h after sampling, transferred to labeled storage tubes, and stored at −70°C prior to workup and analysis. Urine samples were collected at different time periods: 0–2, 2–4, 4–6, 6–8, 8–10, 10–12, 12–24, and 24–48 h post-dose and the volume was measured immediately after collection from each subject. We preserved 8 ml specimens into 10 ml centrifuge tubes and stored at −70°C for PK assessment.
The processing method of the urine samples was similar to the method used for the plasma samples. For CK, the only difference was in the mobile phase (acetonitrile: 10 mM aqueous ammonium acetate = 50:50, V/V, for plasma samples; acetonitrile: 20 mM aqueous ammonium acetate = 60:40, V/V, for urine samples; acetonitrile, Merck KGaA, Darmstadt, Germany; ammonium acetate, CNW technologies GmbH, Duesseldorf, Germany). As for 20(S)-PPD, neither the IS nor the mobile phase were the same (IS: coumarin for plasma samples and finasteride for urine samples; mobile phase was acetonitrile: 10 mM aqueous ammonium acetate = 50: 50, V/V, for plasma samples, and acetonitrile: 0.1% formic acid aqueous solution = 50: 50, V/V, for urine samples). The calibration curve range for CK was linear from 1.00 to 1002.0 ng·ml^−1 with a correlation coefficient equal to 0.9984, and from 0.15 to 54.30 ng·ml^−1 with a correlation coefficient equal to 0.9978 for 20(S)-PPD. Three levels of QC samples (2.00, 50.10, or 801.60 ng.ml^−1 CK) were prepared in urine for testing accuracy and coefficient of variations (CVs), and the values were 94–103% and 1.06–6.54%, respectively.
Experimental observations provided the plasma CK and 20(S)-PPD concentrations vs. the time data after single-dose administration, including maximum plasma concentration (Cmax) and the time to maximum plasm concentration (Tmax). The area under the curve (AUC) from time zero to the last time point (AUClast) and the AUC extrapolated to infinity (AUCinf) were calculated using the linear trapezoidal rule. The slope (elimination rate constant, K) of the terminal phase of the plasma concentration-time profile was determined, using a weighting factor of 1, by the method of least squares (log-linear regression of at least three data points). The t1/2 was estimated as (ln2)/K. The apparent plasma clearance of the drug after oral administration (CL/F) was expressed as a function of bioavailability (F) and calculated as the dose divided by AUCinf, assuming that the complete systemic bioavailability F = 1. The apparent volume of distribution (V/F) was equal to (CL/F)/K. The mean residence time (MRT) was calculated as the area under the first moments curve (AUMC) divided by AUC. The dose-normalized PK parameters e.g., Cmax/D and AUClast/D, were obtained by dividing each PK result by the administered dose. The cumulative excretion rate was calculated as the amount of unchanged drug in the urine over a time interval divided by the dose and was expressed as thousand points (‰).

## CC(C)=CCC[C@](C)(OC1O[C@H](CO)[C@@H](O)[C@H](O)[C@H]1O)[C@H]1CC[C@]2(C)[C@@H]1[C@H](O)C[C@@H]1[C@@]3(C)CC[C@H](O)C(C)(C)[C@@H]3CC[C@]12C (stereo partly drawn) [CK, 20-O-beta-D-glucopyranosyl-20(S)-protopanaxadiol]
25 mg oral
  Ae, accumulative urine excretion rate: 0.41 ± 0.29 ‰
50 mg oral
  Ae, accumulative urine excretion rate: 0.46 ‰ and 0.46 ± 0.34 ‰
100 mg oral
  Ae, accumulative urine excretion rate: 0.25 ± 0.13 ‰
200 mg oral
  Ae, accumulative urine excretion rate: 0.27 ± 0.15 ‰
400 mg oral
  Ae, accumulative urine excretion rate: 0.19 ± 0.13 ‰
600 mg oral
  Ae, accumulative urine excretion rate: 0.10 ‰ and 0.10 ± 0.08 ‰
800 mg oral
  Ae, accumulative urine excretion rate: 0.10 ‰ and 0.10 ± 0.04 ‰
